Legend:
[1] = biological target: DPP-IV enzyme (Homo sapiens, UniProt P27487); test: In vitro DPP-IV enzyme inhibition assay (Cayman Chemical kit, item 700210); conditions: for inhibition at 250 µM: read-out: % Inhibition (at Conc.)
[2] = system: DPP-IV; conditions: DPP-IV enzyme assay of coumarin; cited from earlier work

Chain of DPP-IV enzyme (P27487 whole entry): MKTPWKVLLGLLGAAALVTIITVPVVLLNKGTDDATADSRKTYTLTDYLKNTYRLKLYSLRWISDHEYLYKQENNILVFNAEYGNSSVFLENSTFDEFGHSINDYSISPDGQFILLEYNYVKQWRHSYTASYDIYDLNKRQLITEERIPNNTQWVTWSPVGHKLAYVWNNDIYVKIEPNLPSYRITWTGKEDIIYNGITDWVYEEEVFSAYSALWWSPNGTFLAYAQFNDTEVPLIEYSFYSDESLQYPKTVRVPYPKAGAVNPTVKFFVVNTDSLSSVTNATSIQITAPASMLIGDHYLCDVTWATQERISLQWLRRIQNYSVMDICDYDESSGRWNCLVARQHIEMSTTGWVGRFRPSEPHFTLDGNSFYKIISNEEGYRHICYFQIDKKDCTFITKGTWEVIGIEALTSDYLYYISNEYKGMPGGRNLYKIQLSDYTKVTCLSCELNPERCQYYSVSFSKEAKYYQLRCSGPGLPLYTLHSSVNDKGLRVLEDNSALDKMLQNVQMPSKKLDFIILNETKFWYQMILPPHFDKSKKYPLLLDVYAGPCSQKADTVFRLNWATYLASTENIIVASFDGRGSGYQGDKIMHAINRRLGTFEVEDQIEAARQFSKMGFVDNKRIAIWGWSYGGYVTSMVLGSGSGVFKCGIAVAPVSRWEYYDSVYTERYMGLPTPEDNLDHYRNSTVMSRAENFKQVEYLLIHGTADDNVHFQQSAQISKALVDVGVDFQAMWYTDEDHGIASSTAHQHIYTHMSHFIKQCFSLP

Row | SMILES | IC50 [1] [µM] | inhibition at 250 µM [1] [%] | IC50 [2] [µM]
1 | O=c1oc2ccc(S(=O)(=O)Nc3ccccc3)cc2cc1Cl [6a, 3-Chloro-2-oxo-2H-1-benzopyran-6-(N-phenyl)sulfonamide] | 14.5 ± 1.2 | 93.5 ± 2.02 | 
2 | O=c1oc2ccc(S(=O)(=O)Nc3ccncc3)cc2cc1Cl [6d, 3-Chloro-2-oxo-N-(pyridin-4-yl)-2H-chromene-6-sulfonamide] | 15.2 ± 1.02 | 92.4 ± 1.11 | 
3 | Cc1ccc(NS(=O)(=O)c2ccc3oc(=O)c(Cl)cc3c2)cc1 [6r, 3-Chloro-2-oxo-N-(p-tolyl)-2H-chromene-6-sulfonamide] | 12.92 ± 0.11 | 95.4 ± 1.1 | 
4 | O=c1oc2ccc(S(=O)(=O)NCc3ccccc3)cc2cc1Cl [6t, N-benzyl-3-chloro-2-oxo-2H-chromene-6-sulfonamide] | 17.73 ± 0.02 | 88.3 ± 2.06 | 
5 | O=c1ccc2ccccc2o1 [coumarin] |  |  | 54.8

Further molecules by falling IC50 [1], results first:

Row | IC50 [1] [µM] | inhibition at 250 µM [1] [%] | SMILES | IC50 [2] [µM]
6 | 18.29 ± 0.1 | 89.3 ± 0.9 | Cc1ccccc1NS(=O)(=O)c1ccc2oc(=O)c(Cl)cc2c1 [6s, 3-Chloro-2-oxo-N-(o-tolyl)-2H-chromene-6-sulfonamide] | 
7 | 16.3 ± 2.04 | 90.3 ± 2.04 | O=c1oc2ccc(S(=O)(=O)Nc3cccnc3)cc2cc1Cl [6c, 3-Chloro-2-oxo-N-(pyridin-3-yl)-2H-chromene-6-sulfonamide] | 
8 | 15.7 ± 0.98 | 91.15 ± 0.9 | O=c1oc2ccc(S(=O)(=O)Nc3ccccn3)cc2cc1Cl [6b, 3-Chloro-2-oxo-N-(pyridin-2-yl)-2H-chromene-6-sulfonamide] | 
9 | 11 ± 1 | 95.8 ± 1.08 | O=c1oc2ccc(S(=O)(=O)Nc3nc4ccccc4[nH]3)cc2cc1Cl [6i, 3-Chloro-2-oxo-2H-1-benzopyran-6-(N-benzimidazole)sulfonamide] | 

— paper PMC9921777, “Coumarin-Based Sulfonamide Derivatives as Potential DPP-IV Inhibitors: Pre-ADME Analysis, Toxicity Profile, Computational Analysis, and In Vitro Enzyme Assay” (Molecules, 2023)
